By IC50 is commonly meant the point on the concentration scale where inhibition reaches its midpoint. A higher IC50 goes with a need for much substance.

The target of the experiment is human thrombin (Homo sapiens, UniProt P00734). As to the kind of experiment: Fluorescence-based thrombin inhibition assay. Format: biochemical.
On to `O=C(/C=C/c1ccc(O)cc1)c1ccc(O)cc1O` [compound 2, isoliquiritigenin], for which the “Anti-thrombin activity (in words)” value was “moderate” and inhibition was half-maximal at 17.9 ± 2.75 µM (IC50).

Turning to `CC(C)=CCc1cc([C@@H]2CC(=O)c3ccc(O)c(CC=C(C)C)c3O2)ccc1O` [compound 11, glabrol], the 50% inhibitory concentration (IC50) is over 100 µM.

On to `COc1c2c(cc3oc(=O)c4c5ccc(O)cc5oc4c13)OC(C)(C)CC2` [compound 17, isoglycyrol], for which the IC50 is over 100 µM.

`CC1(C)[C@@H](O)CC[C@]2(C)[C@H]3C(=O)C=C4[C@@H]5C[C@@](C)(C(=O)O)CC[C@]5(C)CC[C@@]4(C)[C@]3(C)CC[C@@H]12` [compound 18, glycyrrhetinic acid] registered an IC50 of over 100 µM.

In the case of `O=C(/C=C/c1ccc(O[C@@H]2O[C@H](CO)[C@@H](O)[C@H](O)[C@H]2O)cc1)c1ccc(O)cc1O` [compound 1, isoliquiritin], the “Anti-thrombin activity (in words)” value is “moderate” and the IC50 turned out to be 38.8 ± 4.04 µM.

`CC1(C)C=Cc2c(ccc3c2OC[C@@H](c2ccc(O)cc2O)C3)O1` [compound 20, glabridin] showed an IC50 of over 100 µM.

On to `O=c1cc(-c2ccccc2)oc2cc(O)c(O)c(O)c12` [compound 23, Baicalein, reference compound], for which 36.1 ± 4.68 µM corresponded to half-maximal inhibition (IC50).

As for `COc1cc(O)ccc1/C=C/C(=O)c1ccc(O)cc1` [compound 6, echinatin], the “Anti-thrombin activity (in words)” value was “moderate” and the IC50 is 28.5 ± 2.65 µM.

Molecule `COc1c(CC=C(C)C)c(O)cc2oc(=O)c(-c3ccc(O)cc3O)cc12` [compound 16, glycycoumarin] displayed an IC50 of over 100 µM.

The molecule `O=C1C[C@@H](c2ccc(O[C@@H]3O[C@H](CO)[C@@H](O)[C@H](O)[C@H]3O)cc2)Oc2cc(O)ccc21` [compound 12, liquiritin] yielded an IC50 of over 100 µM.

In the case of `CC1(C)[C@@H](O[C@H]2O[C@H](C(=O)O)[C@@H](O)[C@H](O)[C@H]2O[C@@H]2O[C@H](C(=O)O)[C@@H](O)[C@H](O)[C@H]2O)CC[C@]2(C)[C@H]3C(=O)C=C4[C@@H]5C[C@@](C)(C(=O)O)CC[C@]5(C)CC[C@@]4(C)[C@]3(C)CC[C@@H]12` [compound 19, glycyrrhizic acid], the IC50 is over 100 µM.

Regarding isoliquiritin apioside [compound 8], the “Anti-thrombin activity (in words)” value is “moderate”.

In the case of `CC(C)=CCc1c(O)cc2oc(-c3ccc(O)cc3)c(O)c(=O)c2c1O` [compound 14, licoflavonol], the concentration for half-maximal inhibition (IC50) is over 100 µM.

Molecule `CC(C)=CCc1cc(-c2oc3cc(O)cc(O)c3c(=O)c2O)ccc1O` [compound 15, isolicoflavonol] gave an IC50 of over 100 µM.

Molecule `COc1cc(O)c2c(=O)cc(-c3ccc(OC)c(-c4c(O)cc(O)c5c(=O)cc(-c6ccc(O)cc6)oc45)c3)oc2c1` [compound 22, Ginkgetin, reference compound] came in with an IC50 of 8.05 ± 1.5 µM.

Values taken from PMC9048847 (RSC Advances, 2020).
